Experimental data from patent publication US11702422B2, “Imidazopyridazines as modulators of IL-17” (Janssen Pharmaceutica NV, priority 2020, dated 2023).
pIC50: −log10 of the molar value.

Columns and labels:
[1] = biological target: IL-17A(FLAG-Tagged): IL-17RA(His-Tagged) (Homo sapiens, UniProt Q16552, K93Q); assay: IL-17A(FLAG-Tagged): IL-17RA(His-Tagged) Binding Disruption Eu-HTRF Assay; conditions: IL-17A/IL-17RA binding disruption, simple average if tested more than once
Method in brief: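 IC50 comes from a one-site competition fit of the HTRF 665/620 nm ratio. Compound dilutions (2-fold, 22 points) were held 1 h rt with FLAG-tagged IL-17A dimer, then His-tagged IL-17RA plus Eu-cryptate anti-FLAG and D2 anti-His antibodies were added for 2 h rt.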

[2] = test system: IL-17A-induced G-CSF production in human normal keratinocyte (NHK); assay: NHK Assay: IL-17A-induced G-CSF production in human normal keratinocytes; type: cell-based; conditions: Homo sapiens, Keratinocyte, 24 h, adult normal human keratinocytes, IL-17A 5 ng/mL, simple average if tested more than once
Method in brief: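 Adult normal human keratinocytes were seeded at 3000-4000 cells/well. Recombinant human IL-17A was pre-incubated 1 h at rt with titrated compound, then added to cells (final 5 ng/mL IL-17A, 0.2% DMSO, 5% FBS) for 24 h at 37° C. Supernatant G-CSF was measured by HTRF against a standard curve to give IC50.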

UniProt Q16552, sequence (Q16552 with tags, fused parts or gaps K93Q): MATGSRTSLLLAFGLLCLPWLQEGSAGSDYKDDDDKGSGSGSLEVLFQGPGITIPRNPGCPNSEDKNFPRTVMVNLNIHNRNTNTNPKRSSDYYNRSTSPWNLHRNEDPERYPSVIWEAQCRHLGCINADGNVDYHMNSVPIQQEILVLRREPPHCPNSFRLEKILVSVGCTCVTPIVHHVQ

pIC50 [1]	Structure (SMILES)	pIC50 [2]
6.89	CC(C)n1nccc1C(=O)N[C@H](c1cn2ncc([C@H](NC(=O)CC(C)(F)F)C3CC3)cc2n1)C1CCC(F)(F)CC1 [Example 261, N—((S)-(7-((R)-Cyclopropyl(3,3-difluorobutanamido)methyl)imidazo[1,2-b]pyridazin-2-yl)(4,4-difluorocyclohexyl)methyl)-1-isopropyl-1H-pyrazole-5-carboxamide]	6.37
6.92	CC(CC(=O)N[C@@H](c1cnn2cc([C@@H](NC(=O)c3ccnn3C(C)C)C3CCC(F)(F)CC3)nc2c1)C1CC1)C(F)F (stereo partly drawn) [Example 262, N-((1S)-(7-((1R)-Cyclopropyl(4,4-difluoro-3-methylbutanamido)methyl)imidazo[1,2-b]pyridazin-2-yl)(4,4-difluorocyclohexyl)methyl)-1-isopropyl-1H-pyrazole-5-carboxamide]	6.92
6.68	Cc1nonc1C(=O)N[C@H](c1cn2ncc([C@H](NC(=O)CC(C)(F)F)C3CC3)cc2n1)C1CCC(F)(F)CC1 [Example 263, N—((S)-(7-((R)-Cyclopropyl(3,3-difluorobutanamido)methyl)imidazo[1,2-b]pyridazin-2-yl)(4,4-difluorocyclohexyl)methyl)-4-methyl-1,2,5-oxadiazole-3-carboxamide]	5.74
6.12	CC(C)n1nccc1C(=O)N[C@H](c1cn2ncc([C@H](NC(=O)C34CC(F)(C3)C4)C3CC3)cc2n1)C1CCC(F)(F)CC1 [Example 268, N—((S)-(7-((R)-Cyclopropyl(3-fluorobicyclo[1.1.1]pentane-1-carboxamido)methyl)imidazo[1,2-b]pyridazin-2-yl)(4,4-difluorocyclohexyl)methyl)-1-isopropyl-1H-pyrazole-5-carboxamide]	5.52
5.70	Cc1nonc1C(=O)N[C@H](c1cn2ncc([C@H](NC(=O)C34CC(F)(C3)C4)C3CC3)cc2n1)C1CCC(F)(F)CC1 [Example 269, N—((S)-(7-((R)-Cyclopropyl(3-fluorobicyclo[1.1.1]pentane-1-carboxamido)methyl)imidazo[1,2-b]pyridazin-2-yl)(4,4-difluorocyclohexyl)methyl)-4-methyl-1,2,5-oxadiazole-3-carboxamide]	4.70
7.07	Cc1nonc1C(=O)N[C@H](c1cn2ncc([C@H](NC(=O)CC34CC(F)(C3)C4)C3CC3)cc2n1)C1CCC(F)(F)CC1 [Example 272, N—((S)-(7-((R)-Cyclopropyl(2-(3-fluorobicyclo[1.1.1]pentan-1-yl)acetamido)methyl)imidazo[1,2-b]pyridazin-2-yl)(4,4-difluorocyclohexyl)methyl)-4-methyl-1,2,5-oxadiazole-3-carboxamide]	6.54
6.80	CC(C)n1nccc1C(=O)N[C@H](c1cn2ncc([C@H](NC(=O)CC34CC(F)(C3)C4)C3CC3)cc2n1)C1CCC(F)(F)CC1 [Example 273, N—((S)-(7-((R)-Cyclopropyl(2-(3-fluorobicyclo[1.1.1]pentan-1-yl)acetamido)methyl)imidazo[1,2-b]pyridazin-2-yl)(4,4-difluorocyclohexyl)methyl)-1-isopropyl-1H-pyrazole-5-carboxamide]	7.15
6.48	CC(C)n1nccc1C(=O)N[C@H](c1cn2ncc([C@H](NC(=O)COC(F)F)C3CC3)cc2n1)C1CCC(F)(F)CC1 [Example 274, N—((S)-(7-((R)-Cyclopropyl(2-(difluoromethoxy)acetamido)methyl)imidazo[1,2-b]pyridazin-2-yl)(4,4-difluorocyclohexyl)methyl)-1-isopropyl-1H-pyrazole-5-carboxamide]	6.02
6.77	CC(C)n1nccc1C(=O)N[C@H](c1cn2ncc([C@H](NC(=O)CC3CCCC3(F)F)C3CC3)cc2n1)C1CCC(F)(F)CC1 (stereo partly drawn) [Example 275, N-((1S)-(7-((1R)-Cyclopropyl(2-(2,2-difluorocyclopentyl)acetamido)methyl)imidazo[1,2-b]pyridazin-2-yl)(4,4-difluorocyclohexyl)methyl)-1-isopropyl-1H-pyrazole-5-carboxamide]	6.82
6.82	CC(C)n1nccc1C(=O)N[C@H](c1cn2ncc([C@H](NC(=O)COC(F)(F)F)C3CC3)cc2n1)C1CCC(F)(F)CC1 [Example 276, N—((S)-(7-((R)-Cyclopropyl(2-(trifluoromethoxy)acetamido)methyl)imidazo[1,2-b]pyridazin-2-yl)(4,4-difluorocyclohexyl)methyl)-1-isopropyl-1H-pyrazole-5-carboxamide]	6.85
6.74	Cc1nonc1C(=O)N[C@H](c1cn2ncc([C@H](NC(=O)COC(F)(F)F)C3CC3)cc2n1)C1CCC(F)(F)CC1 [Example 277, N—((S)-(7-((R)-Cyclopropyl(2-(trifluoromethoxy)acetamido)methyl)imidazo[1,2-b]pyridazin-2-yl)(4,4-difluorocyclohexyl)methyl)-4-methyl-1,2,5-oxadiazole-3-carboxamide]	6.16
5.96	Cc1nonc1C(=O)N[C@H](c1cn2ncc([C@H](NC(=O)COC(F)F)C3CC3)cc2n1)C1CCC(F)(F)CC1 [Example 278, N—((S)-(7-((R)-Cyclopropyl(2-(difluoromethoxy)acetamido)methyl)imidazo[1,2-b]pyridazin-2-yl)(4,4-difluorocyclohexyl)methyl)-4-methyl-1,2,5-oxadiazole-3-carboxamide]	5.60
7.44	CC(C)c1nonc1C(=O)N[C@H](c1cn2ncc([C@H](NC(=O)CC34CC(F)(C3)C4)C3CC3)cc2n1)C1CCC(F)(F)CC1 [Example 279, N—((S)-(7-((R)-Cyclopropyl(2-(3-fluorobicyclo[1.1.1]pentan-1-yl)acetamido)methyl)imidazo[1,2-b]pyridazin-2-yl)(4,4-difluorocyclohexyl)methyl)-4-isopropyl-1,2,5-oxadiazole-3-carboxamide]	7.19
7.27	CC(C)n1nccc1C(=O)N[C@H](c1cn2ncc([C@H](NC(=O)CCC(F)F)C3CC3)cc2n1)C1CCC(F)(F)CC1 [Example 280, N—((S)-(7-((R)-Cyclopropyl(4,4-difluorobutanamido)methyl)imidazo[1,2-b]pyridazin-2-yl)(4,4-difluorocyclohexyl)methyl)-1-isopropyl-1H-pyrazole-5-carboxamide]	6.92
7.62	CC(C)c1nonc1C(=O)N[C@H](c1cn2ncc([C@H](NC(=O)CC3CC(F)(F)C3)C3CC3)cc2n1)C1CCC(F)(F)CC1 [Example 281, N—((S)-(7-((R)-Cyclopropyl(2-(3,3-difluorocyclobutyl)acetamido)methyl)imidazo[1,2-b]pyridazin-2-yl)(4,4-difluorocyclohexyl)methyl)-4-isopropyl-1,2,5-oxadiazole-3-carboxamide]	7.59
6.80	[2H]C([2H])([2H])C([2H])([2H])n1nccc1C(=O)N[C@H](c1cn2ncc([C@H](NC(=O)CCC(F)F)C3CC3)cc2n1)C1CCC(F)(F)CC1 [Example 282, N—((S)-(7-((R)-Cyclopropyl(4,4-difluorobutanamido)methyl)imidazo[1,2-b]pyridazin-2-yl)(4,4-difluorocyclohexyl)methyl)-1-(ethyl-d5)-1H-pyrazole-5-carboxamide]	6.38
